Test results reported in patent US9624228B2, “Inhibitors of ERK and methods of use” (KURA ONCOLOGY, INC., priority 2013, dated 2017).

The compounds below were run against ERK2 enzyme (Homo sapiens (Human), UniProt P28482) (assay: Inhibition assay of ERK (Z'-LYTE kinase assay, Ser/Thr 3 peptide substrate)). Conditions: In vitro ERK2 enzyme, 100 μM ATP.
Assay type: biochemical

Sequence of ERK2 enzyme (P28482 whole entry): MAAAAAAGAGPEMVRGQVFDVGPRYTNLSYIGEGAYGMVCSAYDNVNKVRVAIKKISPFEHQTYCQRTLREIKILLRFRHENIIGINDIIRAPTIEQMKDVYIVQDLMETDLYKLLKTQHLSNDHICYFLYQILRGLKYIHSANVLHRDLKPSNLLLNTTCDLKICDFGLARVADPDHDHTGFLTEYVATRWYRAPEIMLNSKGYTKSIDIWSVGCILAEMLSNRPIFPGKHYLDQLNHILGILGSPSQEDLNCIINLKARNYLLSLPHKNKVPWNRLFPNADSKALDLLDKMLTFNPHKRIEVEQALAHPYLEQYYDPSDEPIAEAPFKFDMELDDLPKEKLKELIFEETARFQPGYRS

| IC50 [nM] | SMILES |
| --- | --- |
| < 50 | Cc1cc(-c2n[nH]c3cc4c(cc23)CN([C@@H]2CCCN(Cc3cnn(C)c3)C2)C(=O)N4)ccn1 [Compound 133] |
| < 50 | Cc1cc(-c2n[nH]c3cc4c(cc23)CN([C@@H]2CCCN(Cc3ccc(F)c(Cl)c3)C2)C(=O)N4)ccn1 [Compound 134] |
| 50 to 250 | Cc1cc(-c2n[nH]c3cc4c(cc23)CN([C@@H]2CCCN(CC3CCOCC3)C2)C(=O)N4)ccn1 [Compound 135] |
| 50 to 250 | Cc1cc(-c2n[nH]c3cc4c(cc23)CN([C@@H]2CCCN(CCC(C)(C)C)C2)C(=O)N4)ccn1 [Compound 136] |
| 50 to 250 | Cc1cc(-c2n[nH]c3cc4c(cc23)CN([C@@H]2CCCN(CC3CCC3)C2)C(=O)N4)ccn1 [Compound 137] |
| 50 to 250 | Cc1cc(-c2n[nH]c3cc4c(cc23)CN([C@@H]2CCCN(CC3CCCC3)C2)C(=O)N4)ccn1 [Compound 138] |
| < 50 | Cc1cc(-c2n[nH]c3cc4c(cc23)CN([C@@H]2CCCN(Cc3cc(C)no3)C2)C(=O)N4)ccn1 [Compound 139] |
| < 50 | Cc1cc(-c2n[nH]c3cc4c(cc23)CN([C@@H]2CCCN(Cc3csc(C)n3)C2)C(=O)N4)ccn1 [Compound 140] |
| 50 to 250 | Cc1cc(-c2n[nH]c3cc4c(cc23)CN([C@@H]2CCCN(CC3CCCCC3)C2)C(=O)N4)ccn1 [Compound 141] |
| < 50 | Cc1cc(-c2n[nH]c3cc4c(cc23)CN([C@@H]2CCCN(CC3CC5CCC3C5)C2)C(=O)N4)ccn1 (some centres unmarked) [Compound 142] |
| < 50 | Cc1cc(-c2n[nH]c3cc4c(cc23)CN([C@@H]2CCCN(Cc3c(F)cccc3F)C2)C(=O)N4)ccn1 [Compound 143] |
| < 50 | COc1cccc(F)c1CN1CCC[C@@H](N2Cc3cc4c(-c5ccnc(C)c5)n[nH]c4cc3NC2=O)C1 [Compound 144] |
| < 50 | Cc1cc(-c2n[nH]c3cc4c(cc23)CN([C@@H]2CCCN(CCc3ccccc3)C2)C(=O)N4)ccn1 [Compound 145] |
| < 50 | Cc1cc(-c2n[nH]c3cc4c(cc23)CN([C@@H]2CCN(Cc3ccccc3)C2)C(=O)N4)ccn1 [Compound 146] |
| 50 to 250 | Cc1cc(-c2n[nH]c3cc4c(cc23)CN([C@@H]2CCN(Cc3c(F)cccc3F)C2)C(=O)N4)ccn1 [Compound 147] |
| < 50 | [2H]C([2H])(c1ccccc1)N1CCC[C@@H](N2Cc3cc4c(-c5ccnc(C)c5)n[nH]c4cc3NC2=O)C1 [Compound 148] |
| < 50 | Cc1cc(-c2n[nH]c3cc4c(cc23)CN(CCNCc2ccccc2)C(=O)N4)ccn1 [Compound 149] |
| < 50 | COc1ncccc1CN1CCC[C@@H](N2Cc3cc4c(-c5ccnc(C)c5)n[nH]c4cc3NC2=O)C1 [Compound 150] |
| < 50 | Cc1cc(-c2n[nH]c3cc4c(cc23)CN([C@@H]2CCCN(Cc3ccc(F)cc3)C2)C(=O)N4)ccn1 [Compound 151] |
| < 50 | Cc1cc(-c2n[nH]c3cc4c(cc23)CN([C@@H]2CCN(CCc3ccccc3)C2)C(=O)N4)ccn1 [Compound 153] |
| < 50 | Cc1cc(-c2n[nH]c3cc4c(cc23)CN([C@@H]2CCCN(C(C)c3ccccc3)C2)C(=O)N4)ccn1 (some centres unmarked) [Compound 154] |

| IC50 [nM] | SMILES |
| --- | --- |
| < 50 | Cc1cc(-c2n[nH]c3cc4c(cc23)CN([C@@H]2CCCN(CCC3CC3)C2)C(=O)N4)ccn1 [Compound 155] |
| < 50 | Cc1cc(-c2n[nH]c3cc4c(cc23)CN([C@@H]2CCCN(Cc3cccc(Cl)c3)C2)C(=O)N4)ccn1 [Compound 156] |
| 50 to 250 | Cc1cc(-c2n[nH]c3cc4c(cc23)CN(C2CCN(CCc3ccccc3)CC2)C(=O)N4)ccn1 [Compound 157] |
| < 50 | Cc1cc(-c2n[nH]c3cc4c(cc23)CN([C@@H]2CCCN(Cc3ccccc3Cl)C2)C(=O)N4)ccn1 [Compound 158] |
| < 50 | Cc1cc(-c2n[nH]c3cc4c(cc23)CN([C@@H]2CCCN(Cc3ccc(Cl)cc3)C2)C(=O)N4)ccn1 [Compound 159] |
| 50 to 250 | Cc1cc(-c2n[nH]c3cc4[nH]c(=O)c(C(C)C5CCCCC5)cc4cc23)ccn1 (centres unmarked) [Compound 160] |
| < 50 | Cc1cc(-c2n[nH]c3cc4c(cc23)CN([C@@H]2CCCN(Cc3cccnc3C(F)(F)F)C2)C(=O)N4)ccn1 [Compound 161] |
| < 50 | COc1cccc(F)c1CN1CC[C@@H](N2Cc3cc4c(-c5ccnc(C)c5)n[nH]c4cc3NC2=O)C1 [Compound 162] |
| < 50 | Cc1cc(-c2n[nH]c3cc4c(cc23)CN([C@@H]2CCCN(Cc3cc(F)cc(F)c3)C2)C(=O)N4)ccn1 [Compound 163] |
| < 50 | Cc1cc(-c2n[nH]c3cc4c(cc23)CN([C@@H]2CCCN(CCc3cccc(Cl)c3)C2)C(=O)N4)ccn1 [Compound 164] |
| < 50 | [2H]c1c([2H])c([2H])c(C([2H])([2H])N2CCC[C@@H](N3Cc4cc5c(-c6ccnc(C)c6)n[nH]c5cc4NC3=O)C2)c([2H])c1[2H] [Compound 165] |
| < 50 | Cc1cc(-c2n[nH]c3cc4c(cc23)CN([C@@H]2CCCN(Cc3cncnc3)C2)C(=O)N4)ccn1 [Compound 166] |
| 50 to 250 | Cc1cc(-c2n[nH]c3cc4c(cc23)CN([C@@H]2CCCN(CCc3ccc(F)cc3)C2)C(=O)N4)ccn1 [Compound 167] |
| < 50 | Cc1cc(-c2n[nH]c3cc4c(cc23)CN([C@@H]2CCCN(Cc3ncccc3C)C2)C(=O)N4)ccn1 [Compound 168] |
| < 50 | Cc1cc(-c2n[nH]c3cc4c(cc23)CN([C@@H]2CCCN(CCC(C)C)C2)C(=O)N4)ccn1 [Compound 169] |
| < 50 | Cc1cc(-c2n[nH]c3cc4c(cc23)CN([C@@H]2CCCN(Cc3cccnc3C)C2)C(=O)N4)ccn1 [Compound 170] |
| 50 to 250 | Cc1cc(-c2n[nH]c3cc4c(cc23)CN([C@@H]2CCCN(Cc3ccccn3)C2)C(=O)N4)ccn1 [Compound 171] |
| < 50 | Cc1cc(-c2n[nH]c3cc4c(cc23)CN([C@@H]2CCCN(C(=O)c3ccccc3)C2)C(=O)N4)ccn1 [Compound 172] |
| < 50 | Cc1cc(-c2n[nH]c3cc4c(cc23)CN(CCNCc2ccc(F)c(Cl)c2)C(=O)N4)ccn1 [Compound 173] |
| < 50 | Cc1cc(-c2n[nH]c3cc4c(cc23)CN([C@@H]2CCCN(c3cccc(Cl)c3)C2)C(=O)N4)ccn1 [Compound 174] |
| < 50 | Cc1cc(-c2n[nH]c3cc4c(cc23)CN(CCNCc2ccc(F)cc2)C(=O)N4)ccn1 [Compound 175] |

| IC50 [nM] | SMILES |
| --- | --- |
| < 50 | Cc1cc(-c2n[nH]c3cc4c(cc23)CN(CCNCc2cccc(Cl)c2)C(=O)N4)ccn1 [Compound 176] |
| < 50 | Cc1cc(-c2n[nH]c3cc4c(cc23)CN([C@@H]2CCC[C@H](NCc3ccccc3)C2)C(=O)N4)ccn1 [Compound 177] |
| < 50 | Cc1cc(-c2n[nH]c3cc4c(cc23)CN([C@@H]2CCCN(CCC(F)(F)F)C2)C(=O)N4)ccn1 [Compound 178] |
| 50 to 250 | Cc1cc(-c2n[nH]c3cc4c(cc23)CN([C@@H]2CCCN(C(C)c3ccc(F)cc3)C2)C(=O)N4)ccn1 (some centres unmarked) [Compound 179] |
| 50 to 250 | Cc1cc(-c2n[nH]c3cc4c(cc23)CN([C@@H]2CCCN(C(C)c3cccc(Cl)c3)C2)C(=O)N4)ccn1 (some centres unmarked) [Compound 180] |
| 50 to 250 | Cc1cc(-c2n[nH]c3cc4c(cc23)CN([C@@H]2CCCN(CC3(C)CC3)C2)C(=O)N4)ccn1 [Compound 182] |
| 50 to 250 | Cc1cc(-c2n[nH]c3cc4c(cc23)CN([C@@H]2CCCN(Cc3cnccc3C)C2)C(=O)N4)ccn1 [Compound 183] |
| < 50 | Cc1cc(-c2n[nH]c3cc4c(cc23)CN([C@@H]2CCCN(Cc3cccc(F)c3)C2)C(=O)N4)ccn1 [Compound 184] |
| < 50 | Cc1cc(-c2n[nH]c3cc4c(cc23)CN([C@@H]2CCCN(Cc3cccc(F)c3F)C2)C(=O)N4)ccn1 [Compound 185] |
| 50 to 250 | Cc1cc(-c2n[nH]c3cc4c(cc23)CN([C@@H]2CCCN(Cc3cc(C(C)(C)C)no3)C2)C(=O)N4)ccn1 [Compound 186] |
| < 50 | Cc1cc(-c2n[nH]c3cc4c(cc23)CN([C@@H]2CCCN(Cc3cc(F)ccc3F)C2)C(=O)N4)ccn1 [Compound 187] |
| < 50 | Cc1cc(-c2n[nH]c3cc4c(cc23)CN([C@@H]2CCCN(Cc3cc(C5CC5)on3)C2)C(=O)N4)ccn1 [Compound 188] |
| 50 to 250 | Cc1cc(-c2n[nH]c3cc4c(cc23)CN(C2CN(CCC3CC3)C2)C(=O)N4)ccn1 [Compound 189] |
| < 50 | Cc1cc(-c2n[nH]c3cc4c(cc23)CN([C@@H]2CCCN(Cc3ccc(F)c(F)c3)C2)C(=O)N4)ccn1 [Compound 190] |
| < 50 | Cc1cc(-c2n[nH]c3cc4c(cc23)CN(C2CN(Cc3ccccc3)C2)C(=O)N4)ccn1 [Compound 191] |
| 50 to 250 | Cc1cc(-c2n[nH]c3cc4c(cc23)CN(C2CN(CCc3ccccc3)C2)C(=O)N4)ccn1 [Compound 192] |
| < 50 | Cc1cc(-c2n[nH]c3cc4c(cc23)CN([C@@H]2CCCN(CC(F)(F)F)C2)C(=O)N4)ccn1 [Compound 193] |
| 50 to 250 | Cc1cc(-c2n[nH]c3cc4c(cc23)CN([C@@H]2CCCN(C3CCCCC3)C2)C(=O)N4)ccn1 [Compound 194] |
| 50 to 250 | Cc1cc(-c2n[nH]c3cc4c(cc23)CN([C@@H]2CCCN(Cc3sc(C)nc3C)C2)C(=O)N4)ccn1 [Compound 195] |
| < 50 | Cc1cc(-c2n[nH]c3cc4c(cc23)CN([C@@H]2CCCN(Cc3ccc(F)cc3F)C2)C(=O)N4)ccn1 [Compound 196] |

Same assay, conditions: In vitro, ERK2 enzyme 0.47 ng/μL, 100 μM ATP

| IC50 [nM] | SMILES |
| --- | --- |
| 250 to 1000 | Cc1cc(-c2n[nH]c3cc4c(cc23)CN(C2CN(CC3CC3)C2)C(=O)N4)ccn1 [Compound 198] |
| < 50 | Cc1cc(-c2n[nH]c3cc4c(cc23)CN([C@@H]2CCCN(c3ccc(F)cn3)C2)C(=O)N4)ccn1 [Compound 199] |
| < 50 | Cc1cc(-c2n[nH]c3cc4c(cc23)CN(C2CN(Cc3ccccc3)CC(F)(F)C2)C(=O)N4)ccn1 (centres unmarked) [Compound 200] |
| 250 to 1000 | Cc1cc(-c2n[nH]c3cc4c(cc23)CN(C2CN(CC3CCCC3)CC(F)(F)C2)C(=O)N4)ccn1 (centres unmarked) [Compound 201] |
| 250 to 1000 | Cc1cc(-c2n[nH]c3cc4c(cc23)CN(C2CN(Cc3cc(F)cc(F)c3)CC(F)(F)C2)C(=O)N4)ccn1 (centres unmarked) [Compound 202] |
| < 50 | Cc1cc(-c2n[nH]c3cc4c(cc23)CN([C@@H]2CCCN(CC(=O)C(C)(C)C)C2)C(=O)N4)ccn1 [Compound 203] |
